Results published in patent publication US5935954A, “Compounds with improved multi-drug resistance activity” (Vertex Pharmaceuticals Incorporated, priority 1997, dated 1999).
Read-outs that look alike come from different tables or passages of the source.

Columns and labels:
FKBP12 = FKBP12 (Homo sapiens, UniProt P62942); experiment: FKBP12 binding assay (inhibition of rotomase activity); format: biochemical; conditions: apparent Ki
From the text: Preferably, the assay measures inhibition of FKBP12 rotomase activity. Such an assay has also been described by M. W. Harding et al., supra and by J. J. Siekierka et al., supra. In this assay the isomerization of an artificial substrate--N-succinyl-Ala-Ala-Pro-Phe-p-nitroanilide--is followed spectrophotometrically. The assay includes the cis form of the substrate, FKBP12, the inhibitor and chymotrypsin. Chymotrypsin is able to cleave p-nitroanilide from the trans form of the substrate, but not the cis form. Release of p-nitroanilide is measured.
The inhibition of FKBP rotomase activity by the preferred FKBP12 binding compounds present in the compositions of this invention was assayed. In this assay various quantities of FKBP12 binding compound (0nM-10 μM) were added to cis-N-succinyl-Ala-Ala-Pro-Phe-p-nitroanilide in the presence of FKBP12 and chymotrypsin. FKBP12 converts the cis form of the substrate to the trans form. This allows chymotrypsin to cleave p-nitroanilide from the substrate. Release of p-nitroanilide was measured spectrophotometrically. This assay allowed me to measure the change in the first order rate constant of the rotomase activity as a function of FKBP12 binding compound concentration and yielded an estimate of apparent Ki.

[1] = test system: L1210 mouse leukemia cells transformed with the pHaMDR1/A retrovirus carrying a MDR1 cDNA; experiment: cells; format: cell-based; conditions: for MDR Ratio: IC50 Dox / IC50 Dox+Inhibitor, 2.5 μM compound; for IC50: Mus musculus, doxorubicin alone
Experimental: To assay the ability of the compounds according to this invention to increase the antiproliferative activity of a drug, cell lines which are known to be resistant to a particular drug may be used. These cell lines include, but are not limited to, the L1210, P388D, CHO and MCF7 cell lines. Alternatively, resistant cell lines may be developed. The cell line is exposed to the drug to which it is resistant, or to the test compound; cell viability is then measured and compared to the viability of cells which are exposed to the drug in the presence of the test compound.
To carry out assays using L1210 mouse leukemia cells transformed with the pHaMDR1/A retrovirus carrying a MDR1 cDNA, we follow the procedure described by Pastan et al., Proc. Natl. Acad. Sci., Vol. 85, […] 4490 (1988). The resistant line, labelled L1210VMDRC.06, is obtained from Dr. M. M. Gottesman of the National Cancer Institute. Drug-resistant transfectants are selected by culturing cells in […] colchicine.
Multi-drug resistance assays are conducted by plating cells (2×10^3, 1×10^4, or 5×10^4 cells/well) in 96 well microtiter plates and exposing them to a concentration range of doxorubicin (50 nM-10 μM) in the presence or absence of multi-drug resistance modifier compounds ("MDR inhibitors") of this invention (1, 2.5 or 10 μM) as described in Ford et al., Cancer Res., Vol. 50, 1748-1756. (1990). After culture for 3 days, the viability of cells is quantitated using MTT (Mossman) or XTT dyes to assess mitochondrial function. Also see, Mossman T., J. Immunol. Methods, Vol. 65, 55-63 (1983).
Results are determined by comparison of the IC50 for doxorubicin alone to the IC50 for doxorubicin+MDR inhibitor. An MDR ratio is calculated (IC50 Dox/ IC50 Dox+Inhibitor) and the integer value used for comparison of compound potencies. […]

[2] = test system: FK506 binding protein or FKBP12; conditions: cited from earlier work
[3] = test system: multi-drug resistant ("MDR") cells; conditions: cited from earlier work
sensory ganglia = conditions: cited from earlier work
nerve cells = conditions: cited from earlier work
[4] = test system: rat pheochromocytoma cell line; conditions: with NGF; cited from earlier work

Chain of FKBP12 (P62942 whole entry, species assumed): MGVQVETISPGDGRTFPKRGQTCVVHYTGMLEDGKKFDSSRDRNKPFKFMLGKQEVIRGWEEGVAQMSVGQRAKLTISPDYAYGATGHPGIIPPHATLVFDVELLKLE

Row | SMILES | Ki (FKBP12) | MDR Ratio ([1]; Date 5/12/95) | further results
1 | CCCOc1ccc(OCCC)c(-c2cncc([C@@H](CCCc3ccccc3)OC(=O)[C@@H]3CCCCN3C(=O)C(=O)c3cc(OC)c(OC)c(OC)c3)c2)c1 [Compound 22] | 31 nM | 1.3 | MDR Ratio ([1]; Date 4/21/95): 12.4
2 | COc1cc(C(=O)C(=O)N2CCCC[C@H]2C(=O)O[C@H](CCCc2ccccc2)c2cncc(-c3c(OC)cccc3OC)c2)cc(OC)c1OC [Compound 24] | 0.5 nM | > 14.0 | 
3 | CCC/C=C(/c1cccnc1)c1cccc([C@@H](CCN2CCOCC2)OC(=O)[C@@H]2CCCCN2C(=O)C(=O)c2cc(OC)c(OC)c(OC)c2)c1 [Compound 26] | 2.4 nM | 8.8 | 
4 | CCC/C=C(/c1cccnc1)c1cccc([C@H](CCN2CCOCC2)OC(=O)[C@@H]2CCCCN2C(=O)C(=O)c2cc(OC)c(OC)c(OC)c2)c1 [Compound 27] | 260 nM | 12.7 | 
5 | CC/C=C(/c1cccnc1)c1cccc([C@H](CCCc2ccccc2)OC(=O)[C@@H]2CCCCN2C(=O)C(=O)c2cc(OC)c(OC)c(OC)c2)c1 [Compound 28] | 20 nM | 10.0 | 
6 | CCC/C=C(\c1cccnc1)c1cccc([C@@H](CCN2CCOCC2)OC(=O)[C@@H]2CCCCN2C(=O)C(=O)c2cc(OC)c(OC)c(OC)c2)c1 [Compound 30] | 27 nM | 14.0 | 
7 | COc1cc(C(=O)C(=O)N2CCCC[C@H]2C(=O)O[C@H](/C(C)=C/[C@H]2CC[C@H](O)CC2)c2cncc(-c3c(OC)cccc3OC)c2)cc(OC)c1OC [Compound 32] | 9.8 nM | 11.7 | 
8 | COCc1cccc(COC)c1-c1cncc([C@@H](OC(=O)[C@@H]2CCCCN2C(=O)C(=O)c2ccco2)/C(C)=C/[C@H]2CC[C@H](O)CC2)c1 [Compound 40] | 500 nM | 2.5 | 
9 | CCOCc1cc2ccccc2n1-c1cccc([C@@H](OC(=O)[C@@H]2CCCCN2C(=O)C(=O)c2ccco2)/C(C)=C/[C@H]2CC[C@H](O)CC2)c1 [Compound 43] | 180 nM | 14.0 | 
10 | C=CCC/C=C(/c1cccnc1)c1ccc([C@@H](OC(=O)[C@@H]2CCCCN2C(=O)C(=O)C(C)(C)C)/C(C)=C/C2CCN(C)CC2)s1 [Compound 52] | 200 nM | 4.1 | MDR Ratio ([1]; Date 4/21/95): 5.8
11 | COC/C=C(\c1cncc([C@@H](OC(=O)[C@@H]2CCCCN2C(=O)C(=O)CC(C)C)/C(C)=C/[C@H]2CC[C@H](O)CC2)c1)C1CCCCC1 [Compound 59] | 71 nM | 10.8 | 
12 | CCOCc1cccc(COCC)c1-c1csc([C@H](CCN2CCOCC2)OC(=O)[C@@H]2CCCCN2C(=O)C(=O)C2CCOCC2)c1 [Compound 61] | > 10000 nM | 2.5 | 
13 | CCOCc1cccc(COCC)c1-c1cncc([C@H](CCN2CCOCC2)OC(=O)[C@@H]2CCCCN2C(=O)C(=O)C2(C)CCCCC2)c1 [Compound 76] | 400 nM | 6.4 | 
14 | CCOCc1cccc(COCC)c1-c1ccc([C@@H](CCN2CCOCC2)OC(=O)[C@@H]2CCCCN2C(=O)C(=O)C2(C)CCCCC2)s1 [Compound 79] | 12 nM | 7.8 | 
15 | CCOCc1cccc(COCC)c1-c1cncc(C(CCN2CCOCC2)OC(=O)[C@@H]2CCCCN2C(=O)C(=O)C(C)(C)C(C)C)c1 (stereo partly drawn) [Compound 89] | 263 nM | 5.0 | 
16 | C=CCC/C=C(/c1cccnc1)c1ccc(C(CCN2CCOCC2)OC(=O)[C@@H]2CCCCN2C(=O)C(=O)C(C)(C)C(C)C)s1 (stereo partly drawn) [Compound 90] | 9 nM | 7.4 | 
17 | C=CCC/C=C(\c1ccc(C(CCN2CCOCC2)OC(=O)[C@@H]2CCCCN2C(=O)C(=O)C(C)(C)C(C)C)s1)C1CCOCC1 (stereo partly drawn) [Compound 91] | 8 nM | 2.7 | 
18 | CCC/C=C(\c1cncc(C(OC(=O)[C@@H]2CCCCN2C(=O)C(=O)C2(O)CCC(OC)CC2)/C(C)=C/c2ccncc2)c1)C1CCCCC1 (stereo partly drawn) [Compound 100] | 380 nM | < 14.0 | 
19 | CCCc1ccc(CCC)n1-c1cccc([C@@H](CCN2CCOCC2)OC(=O)[C@@H]2CCCCN2C(=O)C(=O)[C@@H]2CCCC[C@H]2C)c1 [Compound 105] | 94 nM | 5.4 | 
20 | CCCc1ccc(CCC)n1-c1cccc([C@@H](CCN2CCOCC2)OC(=O)[C@@H]2CCCCN2C(=O)C(=O)[C@@H]2C[C@H](C(C)(C)OC)CC=C2C)c1 [Compound 107] | 7600 nM | 8.8 | 
21 | CCCc1ccc(CCC)n1-c1cccc([C@@H](CCN2CCOCC2)OC(=O)[C@@H]2CCCCN2C(=O)C(=O)[C@@H]2C[C@H](OCC)CC[C@H]2C)c1 [Compound 111] | 800 nM | 9.3 | 
22 | CCCCc1ccc(C)n1-c1cccc([C@@H](CCN2CCOCC2)OC(=O)[C@@H]2CCCCN2C(=O)C(=O)[C@@H]2C[C@H](C(C)(C)OC)CC[C@H]2C)c1 [Compound 112] | 930 nM | 10.8 | 
23 | CCC/C(=C/COC)c1cncc([C@@H](CCN2CCOCC2)OC(=O)[C@@H]2CCCCN2C(=O)C(=O)C(C)(C)C(C)C)c1 [Compound 113] | 61 nM | 7.0 | 
24 | CCC/C(=C/COC)c1cncc([C@@H](CCN2CCOCC2)OC(=O)[C@@H]2CCCCN2C(=O)C(=O)[C@@H]2C[C@H](C(C)(C)OC)CC[C@H]2C)c1 [Compound 123] | 2800 nM |  | MDR Ratio ([1]; Date 4/21/95): 12.4
25 | COc1cccc2c1C(=O)c1c(O)c3c(c(O)c1C2=O)C[C@@](O)(C(=O)CO)C[C@@H]3O[C@H]1C[C@H](N)[C@H](O)[C@H](C)O1 [DXR, doxorubicin, reference compound] |  |  | IC50 ([1]; L1210, read-out: IC50 DXR Alone, Date 4/21/95): 2100 nM; IC50 ([1]; L1210, read-out: IC50 DXR Alone, Date 5/12/95): 700 nM
26 | C=CC[C@@H]1/C=C(\C)C[C@H](C)C[C@H](OC)[C@H]2O[C@@](O)(C(=O)C(=O)N3CCCC[C@H]3C(=O)O[C@H](/C(C)=C/[C@@H]3CC[C@@H](O)[C@H](OC)C3)[C@H](C)[C@@H](O)CC1=O)[C@H](C)C[C@@H]2OC [FK506] |  |  | binding to FKBP12 [2]: have the ability to bind; sensitization of MDR cells / activity against multi-drug resistance [3]: effective against multi-drug resistance; neurotrophic effects (sensory ganglia): demonstrated similar neurotrophic effects; stimulation of neurite outgrowth (nerve cells): effective in stimulating neurite outgrowth; neurite outgrowth [4]: acts synergistically
27 | CO[C@H]1C[C@@H]2CC[C@@H](C)[C@@](O)(O2)C(=O)C(=O)N2CCCC[C@H]2C(=O)O[C@H]([C@H](C)C[C@@H]2CC[C@@H](O)[C@H](OC)C2)CC(=O)[C@H](C)/C=C(\C)[C@@H](O)[C@@H](OC)C(=O)[C@H](C)C[C@H](C)/C=C/C=C/C=C/1C [rapamycin] |  |  | binding to FKBP12 [2]: have the ability to bind; neurotrophic effects (sensory ganglia): those effects were blocked by rapamycin; neurite outgrowth [4]: did not inhibit the effects of FK-506 on neurite outgrowth, but rather was neurotrophic itself, displaying an additive effect with FK-506
